Patent US8859580B2 (Boehringer Ingelheim International GmbH, priority 2007, dated 2014)

Target: T1, 11β-HSD1 (Homo sapiens, UniProt P28845)
T1 construct: detecting cortisol generated from cortisterone by human liver microsomes; from tissue; host or cells: human liver microsomes
Test: In vitro inhibition of 11β-HSD1, HTRF detection of cortisol generated from cortisone by human liver microsomes
Assay type: biochemical
Details: 11β-HSD IC50 (nM), 1 hour at 37° C., pH 6.0, NADPH 200 μM, cortisone 80 nM, inhibition relative to carbenoxolone signal
Outline: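 Inhibition expressed against the carbenoxolone signal and fitted to IC50 curves. Readout: HTRF competition between microsomal cortisol and XL665-labelled cortisol for Eu-cryptate anti-cortisol antibody (typically 2 h), with emission ratio 665/615 calibrated to cortisol concentration.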

T1 sequence (P28845 whole entry): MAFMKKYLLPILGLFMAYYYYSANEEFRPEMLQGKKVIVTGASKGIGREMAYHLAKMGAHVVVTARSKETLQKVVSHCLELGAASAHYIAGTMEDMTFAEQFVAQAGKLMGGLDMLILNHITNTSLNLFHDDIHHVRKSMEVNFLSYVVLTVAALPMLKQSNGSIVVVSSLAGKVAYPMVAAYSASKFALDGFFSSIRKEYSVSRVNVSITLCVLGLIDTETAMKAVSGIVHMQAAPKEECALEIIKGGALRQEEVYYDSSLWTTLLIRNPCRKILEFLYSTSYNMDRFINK

| Structure (SMILES) | IC50 [nM] |
| --- | --- |
| CC1(C)[C@H]2Cc3c(O)cccc3[C@]1(C)CCN2C(=O)c1ccc(CNC(=O)c2ccccc2)cc1 [Example 125, N-{4-[(2R,6S)-10-Hydroxy-6,11,11-trimethyl-1,2,5,6-tetrahydro-4H-2,6-methano-benzo[d]azocine-3-carbonyl]-benzyl}-benzamide] | 989 |
| CC1(C)[C@H]2Cc3c(O)cccc3[C@]1(C)CCN2C(=O)c1ccncc1 [Example 126, [(2R,6S)-10-Hydroxy-6,11,11-trimethyl-1,2,5,6-tetrahydro-4H-2,6-methano-benzo[d]azocin-3-yl]-pyridin-4-yl-methanone] | 1270 |
| CC1(C)[C@H]2Cc3c(O)cccc3[C@]1(C)CCN2C(=O)c1cccnc1 [Example 127, [(2R,6S)-10-Hydroxy-6,11,11-trimethyl-1,2,5,6-tetrahydro-4H-2,6-methano-benzo[d]azocin-3-yl]-pyridin-3-yl-methanone] | 1470 |
| CC1(C)[C@H]2Cc3c(O)cccc3[C@]1(C)CCN2C(=O)c1ccccn1 [Example 128, [(2R,6S)-10-Hydroxy-6,11,11-trimethyl-1,2,5,6-tetrahydro-4H-2,6-methano-benzo[d]azocin-3-yl]-pyridin-2-yl-methanone] | 1290 |
| CC1(C)[C@H]2Cc3c(O)cccc3[C@]1(C)CCN2C(=O)c1ccncn1 [Example 129, [(2R,6S)-10-Hydroxy-6,11,11-trimethyl-1,2,5,6-tetrahydro-4H-2,6-methano-benzo[d]azocin-3-yl]-pyrimidin-4-yl-methanone] | 5850 |
| CC1(C)[C@H]2Cc3c(O)cccc3[C@]1(C)CCN2C(=O)c1ccc(CN2CCCC2=O)cc1 [Example 130, 1 -{4-[(2R,6S)-10-Hydroxy-6,11,11-trimethyl-1,2,5,6-tetrahydro-4H-2,6-methano-benzo[d]azocine-3-carbonyl]-benzyl}-pyrrolidin-2-one] | 1610 |
| CC1(C)[C@H]2Cc3c(O)cccc3[C@]1(C)CCN2C(=O)c1ccc(Cn2cncn2)cc1 [Example 131, [(2R,6S)-10-Hydroxy-6,11,11-trimethyl-1,2,5,6-tetrahydro-4H-2,6-methano-benzo[d]azocin-3-yl]-(4-[1,2,4]triazol-1-ylmethyl-phenyl)-methanone] | 361 |
| CC(=O)NCc1ccc(C(=O)N2CC[C@@]3(C)c4cccc(O)c4C[C@@H]2C3(C)C)cc1 [Example 132, N-{4-[(2R,6S)-10-Hydroxy-6,11,11-trimethyl-1,2,5,6-tetrahydro-4H-2,6-methano-benzo[d]azocine-3-carbonyl]-benzyl}-acetamide] | 958 |
| CC1(C)[C@H]2Cc3c(O)cccc3[C@]1(C)CCN2C(=O)c1ccc(C(=O)N2CCCC2)cc1 [Example 133, [(2R,6S)-10-Hydroxy-6,11,11-trimethyl-1,2,5,6-tetrahydro-4H-2,6-methano-benzo[d]azocin-3-yl]-[4-(pyrrolidine-1-carbonyl)-phenyl]-methanone] | 941 |
| CC1(C)[C@H]2Cc3c(O)cccc3[C@]1(C)CCN2C(=O)c1ccc(C(=O)N2CCOCC2)cc1 [Example 134, [(2R,6S)-10-Hydroxy-6,11,11-trimethyl-1,2,5,6-tetrahydro-4H-2,6-methano-benzo[d]azocin-3-yl]-[4-(morpholine-4-carbonyl)-phenyl]-methanone] | 1230 |
| CC1(C)[C@H]2Cc3c(O)cccc3[C@]1(C)CCN2C(=O)c1ccc(C(=O)Nc2ccccc2)cc1 [Example 135, 4-[(2R,6S)-10-Hydroxy-6,11,11-trimethyl-1,2,5,6-tetrahydro-4H-2,6-methano-benzo[d]azocine-3-carbonyl]-N-phenyl-benzamide] | 3520 |
| CC1(C)[C@H]2Cc3c(O)cccc3[C@]1(C)CCN2C(=O)c1ccc(C(=O)NCc2ccccc2)cc1 [Example 137, N-Benzyl-4-[(2R,6S)-10-hydroxy-6,11,11-trimethyl-1,2,5,6-tetrahydro-4H-2,6-methano-benzo[d]azocine-3-carbonyl]-benzamide] | 3620 |
| CCNC(=O)c1ccc(C(=O)N2CC[C@@]3(C)c4cccc(O)c4C[C@@H]2C3(C)C)cc1 [Example 138, N-Ethyl-4-[(2R,6S)-10-hydroxy-6,11,11-trimethyl-1,2,5,6-tetrahydro-4H-2,6-methano-benzo[d]azocine-3-carbonyl]-benzamide] | 2810 |
| Cc1cccc2c1C[C@H]1N(C(=O)c3ccc4nc[nH]c4c3)CC[C@]2(C)C1(C)C [Example 139, (3H-Benzoimidazol-5-yl)-[(2R,6S)-6,10,11,11-tetramethyl-1,2,5,6-tetrahydro-4H-2,6-methano-benzo[d]azocin-3-yl]-methanone] | 92 |
| CC1(C)[C@H]2Cc3c(F)cccc3[C@]1(C)CCN2C(=O)c1ccc2nc[nH]c2c1 [Example 140, (3H-Benzoimidazol-5-yl)-[(2R,6S)-10-fluoro-6,11,11-trimethyl-1,2,5,6-tetrahydro-4H-2,6-methano-benzo[d]azocin-3-yl]-methanone] | 48 |
| CC12CCN(C(=O)c3ccc4nc[nH]c4c3)C(Cc3cc(N)ccc31)C2(C)C (stereo not shown) [Example 141, (9-Amino-6,11,11-trimethyl-1,2,5,6-tetrahydro-4H-2,6-methano-benzo[d]azocin-3-yl)-(3H-benzoimidazol-5-yl)-methanone] | 59 |

| Structure (SMILES) | IC50 [nM] |
| --- | --- |
| CC1CN(Cc2ccc(C(=O)N3CC[C@@]4(C)c5cccc(O)c5C[C@@H]3C4(C)C)cc2)CCO1 (stereo partly shown) [Example 142] | 689 |
| CC12CCN(C(=O)c3ccc4nc[nH]c4c3)C(Cc3cc4c(cc31)OCO4)C2(C)C (stereo not shown) [Example 143, (8,9-Methylenedioxy-6,11,11-trimethyl-1,2,5,6-tetrahydro-4H-2,6-methano-benzo[d]azocin-3-yl)-(3H-benzoimidazol-5-yl)-methanone] | 123 |
| CC1(C)[C@H]2Cc3c(O)cccc3[C@]1(C)CCN2C(=O)c1ccncc1Cl [Example 144, (3-Chloro-pyridin-4-yl)-[(2R,6S)-10-hydroxy-6,11,11-trimethyl-1,2,5,6-tetrahydro-4H-2,6-methano-benzo[d]azocin-3-yl]-methanone] | 2560 |
| CC12CCN(C(=O)c3ccc4nc[nH]c4c3)C(Cc3cc(F)ccc31)C2(C)C (stereo not shown) [Example 145, (3H-Benzoimidazol-5-yl)-(9-fluoro-6,11,11-trimethyl-1,2,5,6-tetrahydro-4H-2,6-methano-benzo[d]azocin-3-yl)-methanone] | 108 |
| COc1cccc2c1CC1N(C(=O)c3ccc4nc[nH]c4c3)CCC2C1(C)C (stereo not shown) [Example 146, (3H-Benzoimidazol-5-yl)-(10-methoxy-11,11-dimethyl-1,2,5,6-tetrahydro-4H-2,6-methano-benzo[d]azocin-3-yl)-methanone] | 384 |
| COc1ccc2c(c1)C[C@@H]1N(C(=O)c3ccc4nc[nH]c4c3)CC[C@@]2(C)C1(C)C [Example 147, (3H-Benzoimidazol-5-yl)-[(2S,6R)-9-methoxy-6,11,11-trimethyl-1,2,5,6-tetrahydro-4H-2,6-methano-benzo[d]azocin-3-yl]-methanone] | 1010 |
| O=C(c1ccc2nc[nH]c2c1)N1CCC2(c3ccccc3)CC1Cc1ccccc12 (stereo not shown) [Example 148, (3H-Benzoimidazol-5-yl)-(6-phenyl-1,2,5,6-tetrahydro-4H-2,6-methano-benzo[d]azocin-3-yl)-methanone] | 556 |
| O=C(c1ccc2nc[nH]c2c1)N1CCC2(c3ccccc3)CC1Cc1ccc(O)cc12 (stereo not shown) [Example 149, (3H-Benzoimidazol-5-yl)-(8-hydroxy-6-phenyl-1,2,5,6-tetrahydro-4H-2,6-methano-benzo[d]azocin-3-yl)-methanone] | 374 |
| CC1(C)C2Cc3ccc(O)cc3C1(c1ccccc1)CCN2C(=O)c1ccc2nc[nH]c2c1 (stereo not shown) [Example 150, (3H-Benzoimidazol-5-yl)-(8-hydroxy-11,11-dimethyl-6-phenyl-1,2,5,6-tetrahydro-4H-2,6-methano-benzo[d]azocin-3-yl)-methanone] | 438 |
| C[C@@H]1[C@H]2Cc3ccc(C(=O)O)cc3[C@]1(C)CCN2C(=O)c1ccc2nc[nH]c2c1 [Example 151, (2R,6R,11S)-3-(3H-Benzoimidazole-5-carbonyl)-6,11-dimethyl-1,2,3,4,5,6-hexahydro-2,6-methano-benzo[d]azocine-8-carboxylic acid] | 426 |
| CC1(C)[C@H]2Cc3c(C(=O)O)cccc3[C@]1(C)CCN2C(=O)c1ccc2nc[nH]c2c1 [Example 152, (2R,6S)-3-(3H-Benzoimidazole-5-carbonyl)-6,11,11-trimethyl-1,2,3,4,5,6-hexahydro-2,6-methano-benzo[d]azocine-10-carboxylic acid] | 4670 |
| CC12CCN(C(=O)c3ccc4nc[nH]c4c3)C(Cc3cc(C(=O)O)ccc31)C2(C)C (stereo not shown) [Example 154, 3-(3H-Benzoimidazole-5-carbonyl)-6,11,11-trimethyl-1,2,3,4,5,6-hexahydro-2,6-methano-benzo[d]azocine-9-carboxylic acid] | 1660 |
| C[C@@H]1[C@H]2Cc3ccc(C(=O)N(C)C)cc3[C@]1(C)CCN2C(=O)c1ccc2nc[nH]c2c1 [Example 155, (2R,6R,11S)-3-(3H-Benzoimidazole-5-carbonyl)-6,11-dimethyl-1,2,3,4,5,6-hexahydro-2,6-methano-benzo[d]azocine-8-carboxylic acid dimethylamide] | 354 |
| CNC(=O)c1ccc2c(c1)[C@]1(C)CCN(C(=O)c3ccc4nc[nH]c4c3)[C@H](C2)[C@H]1C [Example 156, (2R,6R,11S)-3-(3H-Benzoimidazole-5-carbonyl)-6,11-dimethyl-1,2,3,4,5,6-hexahydro-2,6-methano-benzo[d]azocine-8 carboxylic acid methylamide] | 340 |
| C[C@@H]1[C@H]2Cc3ccc(C(N)=O)cc3[C@]1(C)CCN2C(=O)c1ccc2nc[nH]c2c1 [Example 157, (2R,6R,11S)-3-(3H-Benzoimidazole-5-carbonyl)-6,11-dimethyl-1,2,3,4,5,6-hexahydro-2,6-methano-benzo[d]azocine-8-carboxylic acid amide] | 335 |
